What follows are molecules tested against indoleamine 2,3-dioxygenase (IDO) (Homo sapiens, UniProt P14902) (assay: HeLa cell-based indoleamine 2,3-dioxygenase (IDO) assay (kynurenine production, IFNγ-stimulated)). Settings: HeLa cells, IFNγ 25 ng/mL, 48 hour incubation; read-out: IDO Hela IC50.
indoleamine 2,3-dioxygenase (IDO), sequence (P14902 whole entry): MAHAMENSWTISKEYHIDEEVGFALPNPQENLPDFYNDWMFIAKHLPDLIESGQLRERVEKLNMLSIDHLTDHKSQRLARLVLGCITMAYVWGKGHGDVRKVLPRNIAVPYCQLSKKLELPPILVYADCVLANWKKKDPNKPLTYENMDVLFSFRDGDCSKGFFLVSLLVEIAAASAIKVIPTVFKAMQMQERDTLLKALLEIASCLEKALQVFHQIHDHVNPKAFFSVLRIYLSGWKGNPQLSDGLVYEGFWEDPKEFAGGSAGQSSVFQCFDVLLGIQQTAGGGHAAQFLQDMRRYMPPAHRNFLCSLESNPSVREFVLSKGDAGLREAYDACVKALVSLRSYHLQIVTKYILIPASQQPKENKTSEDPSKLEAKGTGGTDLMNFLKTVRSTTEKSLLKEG
Description: Assessment of inhibitor activity in HeLa cell-based indoleamine 2,3-dioxygenase (IDO) assay. HeLa (ATCC® CCL-2) cells were obtained from the ATCC® and cultured in Dulbecco's Modified Eagle Medium supplemented with 4.5 g/L glucose, 4.5 […] sodium pyruvate (#10-013-CV, Corning), 2 mM L-alanyl-L-glutamine dipeptide (#35050-061, Gibco), 100U/mL penicillin, 100 μg/mL streptomycin (#SV30010, HyClone) and 10% fetal bovine serum (#SH30071.03 HyClone). Cells were maintained in a humidified incubator at 37° C. in 5% CO2. […] After 24 hours, the media was aspirated and replaced with media containing IFNγ (#285-IF/CF, R&D Systems) at a final concentration of 25 ng/mL. A serial dilution of each test compound was added to the cells in a total volume of 200 μL of culture medium. After a further 48 hour incubation, 170 μL of supernatant was transferred from each well to a fresh 96-well plate. 12.1 μL of 6.1N trichloroacetic acid (#T0699, Sigma-Aldrich) was added to each well and mixed, followed by incubation at 65° C. for 20 minutes to hydrolyze N-formylkynurenine, the product of indoleamine 2,3-dioxygenase, to kynurenine. The reaction mixture was then centrifuged for 10 mins at 500×g to sediment the precipitate. 100 μL of the supernatant was transferred from each well to a fresh 96-well plate. 100 μl of 2% (w/v) p-dimethylaminobenzaldehyde (#15647-7, Sigma-Aldrich) in acetic acid (#A6283, Sigma-Aldrich) was added to each well mixed and incubated at room temperature for 20 mins. Kynurenine concentrations were determined by measuring absorbance at 480 nm and calibrating against an L-kynurenine (#K8625, Sigma-Aldrich) standard curve using a SPECTRAMAX® M2e microplate reader (Molecular Devices). The percentage activity at each inhibitor concentration was determined and IC50 values assessed using nonlinear regression. Activity for compounds described herein is provided in Table 1, wherein potency levels are provided as follows: (Potency: IDO IC50: […])
With `CC[C@@H](NC(=O)c1ccc(OC)nc1)[C@H]1CC[C@@H](c2cnc3ccccc3c2)CC1` (single isomer, unassigned) [Example 20a, 6-Methoxy-N-(1-(4-(quinolin-3-yl)cyclohexyl)propyl)nicotinamide] the IC50 was 250 nM.
Molecule `CC[C@@H](NC(=O)c1ccc(OC)nc1)[C@H]1CC[C@@H](c2cnc3ccccc3c2)CC1` (single isomer, unassigned) [Example 20c, 6-Methoxy-N-(1-(4-(quinolin-3-yl)cyclohexyl)propyl)nicotinamide] has an IC50 of 240 nM.
`CC[C@@H](NC(=O)c1ccc(OC)nc1)[C@H]1CC[C@@H](c2cnc3ccccc3c2)CC1` (single isomer, unassigned) [Example 20d, 6-Methoxy-N-(1-(4-(quinolin-3-yl)cyclohexyl)propyl)nicotinamide] gave an IC50 of 60 nM.
Work on `CC[C@@H](NC(=O)c1cnc(OC)nc1)[C@H]1CC[C@@H](c2ccnc(OC)c2F)CC1` (single isomer, unassigned) [Example 21d, N-(1-(4-(3-Fluoro-2-methoxypyridin-4-yl)cyclohexyl)propyl)-2-methoxypyrimidine-5-carboxamide] yielded an IC50 of 380 nM.
`CCC(NC(=O)c1ccc(OC)nc1)C1CCC(c2ccnc(OC)c2C(F)F)CC1` (single isomer, unassigned) [Example 24b, N-(1-((1s,4s)-4-(3-(Difluoromethyl)-2-methoxypyridin-4-yl)cyclohexyl)propyl)-6-methoxynicotinamide] gave an IC50 of 900 nM.
`CCC(NC(=O)c1cnc(OC)nc1)[C@H]1CC[C@@H](c2ccnc(OC)c2C(F)F)CC1` (single isomer, unassigned) [Example 25b, N-(1-((1s,4s)-4-(3-(Difluoromethyl)-2-methoxypyridin-4-yl)cyclohexyl)propyl)-2-methoxypyrimidine-5-carboxamide] was tested, and the IC50 was 10 nM.
For `CCC(NC(=O)c1ccnc(N2CCOCC2)c1)C1CCC(c2ccnc(OC)c2C(F)F)CC1` (single isomer, unassigned) [Example 26b, N-(1-((1s,4s)-4-(3-(Difluoromethyl)-2-methoxypyridin-4-yl)cyclohexyl)propyl)-2-morpholinoisonicotinamide], the IC50 was 10 nM.
In the case of `CCC(NC(=O)c1ccc(OC)nc1)C1CCC(c2ccnc(F)c2C)CC1` (single isomer, unassigned) [Example 27a, N-(1-((1s,4s)-4-(2-Fluoro-3-methylpyridin-4-yl)cyclohexyl)propyl)-6-methoxynicotinamide], the IC50 is reported as 490 nM.
For `CCC(NC(=O)c1ccc(OC)nc1)C1CCC(c2ccnc(OC)c2C)CC1` (single isomer, unassigned) [Example 28a, 6-Methoxy-N-(1-((1s,4s)-4-(2-methoxy-3-methylpyridin-4-yl)cyclohexyl)propyl)nicotinamide], the IC50 was 540 nM.
`CCC(NC(=O)c1ccc(N)nc1)[C@H]1CC[C@@H](c2ccnc(OC)c2C)CC1` (single isomer, unassigned) [Example 29b, 6-Amino-N-(1-((1s,4s)-4-(2-methoxy-3-methylpyridin-4-yl)cyclohexyl)propyl)nicotinamide] was tested, and the IC50 was 10 nM.
Work on `CCC(NC(=O)c1ccc(OC)nc1)C1CCC(c2ccnc(OC(F)F)c2)CC1` (single isomer, unassigned) [Example 30b, N-(1-(4-(2-(Difluoromethoxy)pyridin-4-yl)cyclohexyl)propyl)-6-methoxynicotinamide] yielded an IC50 of 20 nM.
Work on `CCC(NC(=O)c1ccc(OC)nc1)C1CCC(c2ccnc(OC(F)F)c2)CC1` (single isomer, unassigned) [Example 30d, N-(1-(4-(2-(Difluoromethoxy)pyridin-4-yl)cyclohexyl)propyl)-6-methoxynicotinamide] yielded an IC50 of 250 nM.
In the case of `CC[C@@H](NC(=O)c1ccc(OC)nc1)[C@H]1CC[C@@H](c2ccn(C)c(=O)c2)CC1` (single isomer, unassigned) [Example 31b, 6-Methoxy-N-(1-(4-(1-methyl-2-oxo-1,2-dihydropyridin-4-yl)cyclohexyl)propyl)nicotinamide], the IC50 is reported as 970 nM.
`CC[C@@H](NC(=O)c1ccc(OC)nc1)[C@H]1CC[C@@H](c2ccn(C)c(=O)c2)CC1` (single isomer, unassigned) [Example 31c, 6-Methoxy-N-(1-(4-(1-methyl-2-oxo-1,2-dihydropyridin-4-yl)cyclohexyl)propyl)nicotinamide] showed an IC50 of 190 nM.
With `CCC(NC(=O)c1ccc(OC)nc1)C1CCC(c2cccc(=O)n2C)CC1` (single isomer, unassigned) [Example 32b, 6-Methoxy-N-(1-(4-(1-methyl-6-oxo-1,6-dihydropyridin-2-yl)cyclohexyl)propyl)nicotinamide] the IC50 was 80 nM.
With `CCC(NC(=O)c1ccc(OC)nc1)C1CCC(c2cccc(=O)n2C)CC1` (single isomer, unassigned) [Example 32c, 6-Methoxy-N-(1-(4-(1-methyl-6-oxo-1,6-dihydropyridin-2-yl)cyclohexyl)propyl)nicotinamide] the IC50 was 740 nM.
`CCC(NC(=O)c1ccc(OC)nc1)[C@H]1CC[C@@H](c2cc(C)ccn2)CC1` (single isomer, unassigned) [Example 45a, (±)-6-methoxy-N-(1-(4-(4-methylpyridin-2-yl)cyclohexyl)propyl)nicotinamide] gave an IC50 of 220 nM.
With `CCC(NC(=O)c1ccc(OC)nc1)[C@H]1CC[C@@H](c2cc(C)ccn2)CC1` (single isomer, unassigned) [Example 45b, (±)-6-methoxy-N-(1-(4-(4-methylpyridin-2-yl)cyclohexyl)propyl)nicotinamide] the IC50 was 620 nM.

Same assay, conditions: HeLa cells; potency class; read-out: Patent Potency Hela IC50 A < 10 nM, B > 10 nM, C > 100 nM
`CC[C@@H](NC(=O)c1ccc(OC)nc1)[C@H]1CC[C@@H](c2cnc3ccccc3c2)CC1` (single isomer, unassigned) [Example 20b, 6-Methoxy-N-(1-(4-(quinolin-3-yl)cyclohexyl)propyl)nicotinamide] was tested, and the IC50 was over 100 nM.
Work on `CC[C@@H](NC(=O)c1cnc(OC)nc1)[C@H]1CC[C@@H](c2ccnc(OC)c2F)CC1` (single isomer, unassigned) [Example 21c, N-(1-(4-(3-Fluoro-2-methoxypyridin-4-yl)cyclohexyl)propyl)-2-methoxypyrimidine-5-carboxamide] yielded an IC50 of over 100 nM.
For `CCC(NC(=O)c1ccc(OC)nc1)C1CCC(c2ccnc(OC)c2C(F)F)CC1` (single isomer, unassigned) [Example 24a, N-(1-((1s,4s)-4-(3-(Difluoromethyl)-2-methoxypyridin-4-yl)cyclohexyl)propyl)-6-methoxynicotinamide], the IC50 was under 10 nM.
Work on `CCC(NC(=O)c1ccnc(N2CCOCC2)c1)C1CCC(c2ccnc(OC)c2C(F)F)CC1` (single isomer, unassigned) [Example 26a, N-(1-((1s,4s)-4-(3-(Difluoromethyl)-2-methoxypyridin-4-yl)cyclohexyl)propyl)-2-morpholinoisonicotinamide] yielded an IC50 of over 100 nM.
With `CCC(NC(=O)c1ccc(OC)nc1)C1CCC(c2ccnc(F)c2C)CC1` (single isomer, unassigned) [Example 27b, N-(1-((1s,4s)-4-(2-Fluoro-3-methylpyridin-4-yl)cyclohexyl)propyl)-6-methoxynicotinamide] the IC50 was under 10 nM.
For `CCC(NC(=O)c1ccc(OC)nc1)C1CCC(c2ccnc(OC)c2C)CC1` (single isomer, unassigned) [Example 28b, 6-Methoxy-N-(1-((1s,4s)-4-(2-methoxy-3-methylpyridin-4-yl)cyclohexyl)propyl)nicotinamide], the IC50 was under 10 nM.
`CC[C@@H](NC(=O)c1ccc(OC)nc1)[C@H]1CC[C@@H](c2ccn(C)c(=O)c2)CC1` (single isomer, unassigned) [Example 31a, 6-Methoxy-N-(1-(4-(1-methyl-2-oxo-1,2-dihydropyridin-4-yl)cyclohexyl)propyl)nicotinamide] gave an IC50 of over 100 nM.
`CC[C@@H](NC(=O)c1ccc(OC)nc1)[C@H]1CC[C@@H](c2ccn(C)c(=O)c2)CC1` (single isomer, unassigned) [Example 31d, 6-Methoxy-N-(1-(4-(1-methyl-2-oxo-1,2-dihydropyridin-4-yl)cyclohexyl)propyl)nicotinamide] showed an IC50 of over 100 nM.
Molecule `CCC(NC(=O)c1ccc(OC)nc1)C1CCC(c2cccc(=O)n2C)CC1` (single isomer, unassigned) [Example 32a, 6-Methoxy-N-(1-(4-(1-methyl-6-oxo-1,6-dihydropyridin-2-yl)cyclohexyl)propyl)nicotinamide] has an IC50 of over 100 nM.
`CCC(NC(=O)c1ccc(OC)nc1)C1CCC(c2cccc(=O)n2C)CC1` (single isomer, unassigned) [Example 32d, 6-Methoxy-N-(1-(4-(1-methyl-6-oxo-1,6-dihydropyridin-2-yl)cyclohexyl)propyl)nicotinamide] showed an IC50 of over 100 nM.

From patent US11066392B2, “Inhibitors of indoleamine 2,3-dioxygenase and methods of their use” (BRISTOL-MYERS SQUIBB COMPANY, priority 2017, dated 2021)
